Data on nine compounds can be found in PMC2974656, “Selective killing of human immunodeficiency virus infected cells by non-nucleoside reverse transcriptase inhibitor-induced activation of HIV protease” (Retrovirology, 2010).

Like-named read-outs stand apart in the source and are kept apart here.

For data set [1], the system named is intracellular Gag processing by HIV PR. It is filed as cell-based, HIV-1. To be noted: for Enhancement of alpha complementation: 0.03 to 10 μM NNRTI, result in words. As to the method:
In previous studies, high concentrations of NNRTI (5 μM) were required to observe NNRTI mediated activation of intracellular HIV PR activity. […]. Towards this end, we developed a biochemical assay for gel independent quantitation of intracellular Gag processing by HIV PR in the context of a virus producing cell. We had previously shown that additional protein domains, consisting of small epitope tags or even the 27 kDa green fluorescent protein (EGFP), can be inserted between the MA and CA domains of the Gag and Gag-Pol polyproteins without affecting polyprotein production or processing by HIV PR [36]. Based on this, we designed a HIV reporter construct which contained a small N-terminal fragment ('alpha peptide') of Escherichia coli beta-galactosidase (β-Gal), flanked by two HIV PR recognition sites, between the MA and CA coding sequences of Gag (Figure 1A). […] This so called alpha complementation principle can be exploited for use in mammalian cells and has been employed for the establishment of various cell based biochemical assay systems. We reasoned that embedding of the small alpha peptide within the multi-domain polyproteins Gag or Gag-Pol, respectively, should impair its productive association with the omega subunit, while proteolytic release of the alpha peptide from the polyprotein by PR would allow the formation of enzymatically active β-Gal. This should allow us to monitor intracellular Gag and Gag-Pol processing through increased β-Gal activity.
Reconstituted β-Gal activity in cell lysates was measured by cleavage of the chromogenic substrate CPRG [42] as described in Methods.
The activity of β-Gal in cell lysates from transfected 293T cells was measured by enzymatic cleavage of the chromogenic β-Gal substrate chlorphenolred-β-D-galactopyranoside (CPRG, Roche; [42]). At 44 h post transfection, cells were briefly rinsed with PBS and suspended in reporter gene assay lysis buffer (Roche, 600 μl per 6-well dish) supplemented with a protease inhibitor mix (Roche). Cell suspensions were incubated for 10 min at room temperature and cell debris was subsequently removed by brief centrifugation. Five μl of supernatant were diluted in 96-well plates with 95 μl CPRG reaction buffer (50 mM potassium phosphate, pH 7.5, 1 mM MgCl2) and pre-warmed for 5 min to 37°C. 100 μl of pre-warmed reaction mix (100 μM CPRG in CPRG reaction buffer supplemented with protease inhibitor cocktail and 40 μM β-mercaptoethanol) were added and β-Gal mediated cleavage of CPRG was monitored by recording absorption at 592 nm every 2 min for 20 min at 37°C using a TECAN Safire multi-well reader. OD592 values were plotted over time and relative reaction rates (OD592/min) were determined from the initial linear velocities.

Another data set has as its system HIV-1IIIB. The experiment in a line: Direct antiviral activity: MT4-LTR-EGFP cells infected with HIV-1IIIB, EGFP fluorescence. In kind it is cell-based. To be noted: read-out: Inhibition of HIV replication in vitro EC50. As to the method: After 3 days of incubation, infected cells were quantified by determination of total EGFP fluorescence per well based on microscopy and subsequent image analysis. Threshold values were determined from the average pixel value plus 6 standard deviations from the uninfected control wells, and the median threshold from all control wells on a plate was defined as baseline GFP expression. Intensity values for the sample wells were then determined by subtracting the background threshold from each pixel value obtained from the image of the respective well and calculating the sum of net pixel intensities. Percent inhibition was calculated as 100 * (1 - (Sample - CC)/(VC - CC)).

Data set [2] concerns MT4-LTR-EGFP-IIIB HIV-1 producing cells. The experiment in a line: in vitro. It is filed as cell-based. To be noted: for Cytotoxicity on MT4-LTR-EGFP-IIIB cells, in words: summary of Table 1. As to the method: (§1) The cytotoxicity of inhibitors was determined in parallel on MT4-CMV-EGFP control cells and on MT4-LTR-EGFP-IIIB virus producing cells, respectively.
A further data set in a line: in vitro. It is filed as cell-based. To be noted: human, 4 days, no DRV; mean ± SD; tested up to 10 μM; read-out: Cytotoxicity on MT4-LTR-EGFP-IIIB HIV-1 producing cells CC50. As to the method:
as §1

The test system of the next data set is 293T cells. Description: Microscopically detectable impairment of cell growth of transfected 293T cells. To be noted: high NNRTI concentrations (5 μM and above). It is filed as cell-based. As to the method:
At 44 h post transfection, cell lysates were analyzed for β-Gal activity.

The test system of data set [3] is MT4-CMV-EGFP control cells. Description: Cytotoxicity on uninfected control cells, EGFP fluorescence per well. It is filed as cell-based. As to the method:
as §1

Experiment in data set [4]: as above
It is filed as cell-based. To be noted: human. As to the method: as §1

For data set [5], the system named is intracellular HIV PR activity. Details: method as in PMID 17096588. To be noted: 5 μM NNRTI; cited from earlier work.
The target of a further data set is T1, RT heterodimer (p66/p51) (Human immunodeficiency virus type 1 group M subtype B, UniProt P04585).
T1 construct: the bait protein (p66) was fused to the C-terminus of a chimeric receptor; expressed in transfected cells; host or cells: mammalian cells
Description: cell-based. It is filed as cell-based, HIV-1. From the text: RT heterodimer formation was monitored using a mammalian two hybrid system described previously. In brief, the bait protein (p66) was fused to the C-terminus of a chimeric receptor consisting of the extracellular part of the erythropoietin receptor and the intracellular part of the leptin receptor incapable of STAT activation. The prey protein (p51) was coupled to a part of the cytoplasmic tail of the gp130 chain carrying several STAT3 recruitment domains. Interaction of bait and prey protein leads to functional complementation of STAT3 activity, which results in Epo dependent induction of a STAT3-responsive luciferase reporter gene. Enhancement of this interaction by the addition of compounds can thus be measured by an increase of luciferase expression.

The test system of data set [6] is HXB2D-EGFP infected CD4 positive cells isolated from PBMC. Description: Killing of HIV-1 infected CD4 positive primary T-cells, flow cytometry. It is filed as cell-based, human. To be noted: 100 nM DRV + 1 μM NNRTI + 1 μM AZT. As to the method:
To validate our results obtained for the persistently infected cell line in a more relevant cell system we performed additional infection experiments using human peripheral blood mononuclear cells (PBMC). […]. PBMC isolated from healthy blood donors were activated and infected with a replication competent HIV-1 derivative which carries a gfp gene in the nef locus. The co-receptor antagonist AMD-3100 was added at day 2 post infection to prevent further viral spread. This was done to distinguish the proposed killing of infected cells from the inhibitory effect of NNRTIs and PIs on virus replication. […]. […] Similar results were obtained upon infection of CD4-positive primary T-cells with an EGFP-expressing virus (Figure 4B).
Figure 4 NNRTI induced selective killing of HIV-1 infected primary human cells. (A) PBMC prepared from buffy coats of healthy blood donors were infected with HIV-1AGFP. At day 2 post infection, 100 ng/ml AMD-3100 was added to all samples to prevent further infection. […] After further incubation for 5 days, cells were harvested and analyzed for the proportion of infected GFP expressing cells by flow cytometry. […] P-values were calculated using a two-tailed unpaired t-test (GraphPad Prism). Values were normalized to the respective solvent control. (B) CD4 positive cells isolated from PBMC were infected with HXB2D-EGFP. […] After further incubation for 3 days, cells were harvested and analyzed for the proportion of infected cells by flow cytometry. […] Asterisks: non-infected controls.
Peripheral blood mononuclear cells (PBMC) were purified from buffy coats of HIV-negative blood donors, grown in supplemented RPMI 1640 and stimulated by the addition of 10 ng/ml IL-2 (Biomol) and 2 μg/ml PHA (Sigma). PBMC pooled from two donors each were used for infection. […] For infection of PBMC, the HIV-1 derivatives HIV-1-AGFP [49] carrying the gfp gene fused to the codon for amino acid 16 of Nef in pNL4-3, or HXB2D-EGFP [60], which carries an egfp gene in the place of the viral nef open reading frame, were used as indicated. […]

Data set [7] concerns Gag processing in MT-4-IIIB cells. The experiment in a line: Immunoblot of Gag processing in chronically infected MT-4 cells. To be noted: 200 nM DRV. It is filed as cell-based, HIV-1.
For data set [8], the target named is omega fragment of beta-galactosidase (inactive fragment lacking amino acids 11-41), encoded by pCMVω (Escherichia coli).
Where [9] appears, read: Human immunodeficiency virus 1, 72 h, MT4-LTR-EGFP cells, HIV-1IIIB MOI 0.01, 3 days, mean ± SD of three or more measurements.
[10] abbreviates: MT4-CMV-EGFP control cells (uninfected), 4 days, mean ± SD, tested up to 10 μM, read-out: Cytotoxicity on MT4-CMV-EGFP control cells CC50.
[11] abbreviates: 293T cells, 44 h post transfection.

Consider `Cc1cc(C)c(Nc2ccnc(Nc3ccc(C#N)cc3)n2)c(C)c1` [TMC-120], for which the “Enhancement of alpha complementation” value in data set [1] is given as “little or no enhancement”. The EC50 in the data set on HIV-1IIIB (setting [9]) came to 1.7 ± 1.4 nM. Moreover, in [2], the “Cytotoxicity on MT4-LTR-EGFP-IIIB cells, in words” value was “displayed toxicity”. Besides, the 50% cytotoxic concentration (CC50) at 4 days amounted to 2560 ± 740 nM in the data set “in vitro” and 3020 ± 900 nM in data set [4] (setting [10]). For the same compound, the “Impairment of cell growth with decrease in β-Gal activity indicative of cytotoxic effects” value in the data set with 293T cells is “most pronounced”. Moreover, in data set [3] (text summary of Table 1, tested range up to 10 μM), the “Cytotoxicity on uninfected MT4-CMV-EGFP control cells, in words” value was “comparable toxicity”. The “Stimulation of Gag or Gag-Pol processing” value in data set [5] is on record as “stimulation of Gag processing”.
As for `Cc1cc(C#N)cc(C)c1Oc1nc(Nc2ccc(C#N)cc2)nc(N)c1Br` [ETV, etravirine], in [1] (setting [11]), the “Concentration required to achieve the maximal effect on β-Gal activity” value is reported as ~ 1 μM. In addition, the EC50 amounted to 3.2 ± 5 nM in the data set with HIV-1IIIB (setting [9]) and 270 nM on RT heterodimer (p66/p51). Moreover, the “Impairment of cell growth with decrease in β-Gal activity indicative of cytotoxic effects” value in the data set with 293T cells was “most pronounced”. Further, in data set [4] (setting [10]), the CC50 at 4 days was > 10000 nM.
Consider `COP(=O)(c1cc(C)cc(/C=C/C#N)c1)c1c(C(N)=O)[nH]c2ccc(Cl)cc12` (stereo not drawn) [IDX-12899], for which the “Concentration showing strong β-Gal activity enhancement” value in data set [1] (setting [11]) is ~ 250 nM. Further, the EC50 in the data set on HIV-1IIIB (MT4-LTR-EGFP cells, HIV-1IIIB MOI 0.01, 3 days, mean ± SD of three or more measurements) is 1.9 ± 1.3 nM; at RT heterodimer (p66/p51) (concentration enhancing luciferase signal by 50% over control, read-out: Enhancement of RT-Dimerization EC50), 4.6 nM. The CC50 was 290 ± 210 nM in [2] (4 days, no DRV, mean ± SD, tested up to 10 μM, read-out: Cytotoxicity on MT4-LTR-EGFP-IIIB HIV-1 producing cells CC50) and > 10000 nM in data set [3]. In [2], the “Cytotoxicity on MT4-LTR-EGFP-IIIB cells, in words” value was “submicromolar range”. The “Promotion of RT dimerization, in words” value on RT heterodimer (p66/p51) (summary of Table 1) was “low nM range”.
`Cc1ccnc2c1NC(=O)c1cccnc1N2C1CC1` [NVP, nevirapine]: the “Enhancement of alpha complementation” value in [1] is reported as “little or no enhancement”. In the data set with HIV-1IIIB (setting [9]), the EC50 worked out at 42 ± 20 nM. In addition, in [4] (setting [10]), the CC50 at 4 days was > 10000 nM. Also, the “Stimulation of Gag or Gag-Pol processing” value in data set [5] was “did not stimulate”.
As to `CC(C)CN(C[C@@H](O)[C@H](Cc1ccccc1)NC(=O)O[C@H]1CO[C@H]2OCC[C@H]21)S(=O)(=O)c1ccc(N)cc1` [DRV, darunavir], the “Effect of DRV on the NNRTI effect in CD4-positive primary T-cells” value in [6] is listed as “completely reversed”. For the same compound, the “Gag processing under DRV treatment” value in data set [7] is “impaired”.
For the compound `CC(C)Nc1cccnc1N1CCN(C(=O)c2cc3cc(NS(C)(=O)=O)ccc3[nH]2)CC1` [DLV, delavirdine], in data set [5], the “Stimulation of Gag or Gag-Pol processing” value is listed as “did not stimulate”.
With “alpha peptide of Escherichia coli beta-galactosidase (amino acids 1-51), released from Gagα by HIV-1 (from UniProt P00722 1-51)”, the β-Gal activity (relative rate of CPRG cleavage) in lysates of 293T cells co-transfected with pCMVω and pCHIV.MAα, DMSO control in [8] is 0.109 min^-1.
Take “modified Gagα precursor: HIV-1 Gag polyprotein with the β-Gal alpha peptide inserted between MA and CA (from pCHIV.MAα) (from UniProt P12493;P00722)”: in [8], the β-Gal activity (relative rate of CPRG cleavage) in lysates of 293T cells co-transfected with pCMVω and pCHIV.MAα, grown with 2 μM LPV (Gagα processing nearly completely blocked) came out at 0.054 min^-1.
As for `CCc1nn(CCO)c(CC)c1Oc1cc(C#N)cc(C#N)c1` [UK-453061], the “Enhancement of alpha complementation” value in [1] is given as “little or no enhancement”. Further, the EC50 in the data set on HIV-1IIIB (Human immunodeficiency virus 1, 72 h) amounted to 7.5 ± 1.4 nM; on RT heterodimer (p66/p51), 150 nM. Moreover, the CC50 at 4 days in [4] is > 10000 nM.

The term CC50 denotes the concentration at which the toxic effect on the cells reaches its halfway point.
